Where “and” joins values, the source holds several entries; their conditions need not be identical. Identical values can stand only once. Toxic doses and inconclusive results are not listed.
System: BDF1 mice, B16 melanoma ip, median survival T/C
Experiment: NCI In Vivo Anticancer Drug Screen. Data for tumor model B16 Melanoma (intraperitoneal) in B6D2F1 (BDF1) mice
Conditions: endpoint: median survival time, higher = longer survival
In short: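 Vehicle-treated animals serve as the reference (C); treated animals (T) are scored for survival or tumor size after tumor transplantation.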

[1] = dose: 50.0 mg/kg/injection, schedule: Q01DX009 (ip), vehicle: Klucel (hydroxypropylcellulose) (HPC)
[2] = dose: 100.0 mg/kg/injection, schedule: Q01DX009 (ip), vehicle: Klucel (hydroxypropylcellulose) (HPC)
[3] = dose: 200.0 mg/kg/injection, schedule: Q01DX009 (ip), vehicle: Klucel (hydroxypropylcellulose) (HPC)
[4] = dose: 50.0 mg/kg/injection, schedule: Q01DX009 (ip), vehicle: saline with Tween-80
[5] = dose: 100.0 mg/kg/injection, schedule: Q01DX009 (ip), vehicle: saline with Tween-80
[6] = dose: 200.0 mg/kg/injection, schedule: Q01DX009 (ip), vehicle: saline with Tween-80
[7] = dose: 400.0 mg/kg/injection, schedule: Q01DX009 (ip), vehicle: saline with Tween-80
[8] = dose: 12.5 mg/kg/injection, schedule: Q01DX009 (ip), vehicle: Klucel (hydroxypropylcellulose) (HPC)
[9] = dose: 25.0 mg/kg/injection, schedule: Q01DX009 (ip), vehicle: Klucel (hydroxypropylcellulose) (HPC)
[10] = dose: 12.5 mg/kg/injection, schedule: Q01DX009 (ip), vehicle: saline with Tween-80
[11] = dose: 25.0 mg/kg/injection, schedule: Q01DX009 (ip), vehicle: saline with Tween-80

`C=CCCOC(C)=O` was tested, and the T/C [1] was 100 % of control, the T/C [2] was 108 % of control and the T/C [3] was 108 % of control.

With `C[N+](C)(CCO)Cc1ccccc1` the T/C [4] was 95 % of control and the T/C [5] was 90 % of control.

For `C=C(C)[C@@H]1CC[C@@H]2C(=CC[C@]3(C)C([C@H](C)CC/C=C(/C)C(=O)O)CC[C@@]23C)[C@@]1(C)CCC(=O)O` (stereo not given in full), the T/C (dose: 22.5 mg/kg/injection, schedule: Q01DX009 (ip), vehicle: saline + alcohol) was 98 % of control and the T/C (dose: 45.0 mg/kg/injection, schedule: Q01DX009 (ip), vehicle: saline + alcohol) was 98 % of control.

With `CCN(C(=O)Nc1cccc(Cl)c1)c1ccccc1C` the T/C [5] was 100 % of control, the T/C [6] was 100 % of control and the T/C [7] was 94 % of control.

In the case of `COc1cccc2c1C(=O)c1c(O)c3c(c(O)c1C2=O)C[C@@](O)(/C(C)=N/NC(=O)c1ccc(S(N)(=O)=O)cc1)C[C@@H]3OC1CC(N)C(O)C(C)O1` (stereo not given in full), the T/C (dose: 3.13 mg/kg/injection, schedule: Q01DX009 (ip), vehicle: water) is reported as 190 % of control, the T/C (dose: 6.25 mg/kg/injection, schedule: Q01DX009 (ip), vehicle: water) is reported as 258 % of control and the T/C (dose: 12.5 mg/kg/injection, schedule: Q01DX009 (ip), vehicle: water) is reported as 259 % of control.

For `O=C1C=C(N2CC2)C(=O)C(N2CC2)=C1N1CC1`, the T/C (dose: 1.0 micrograms/kg/injection, schedule: Q01DX009 (ip), vehicle: saline) was 111 % of control, the T/C (dose: 3.0 micrograms/kg/injection, schedule: Q01DX009 (ip), vehicle: saline) was 109 % of control and the T/C (dose: 6.0 micrograms/kg/injection, schedule: Q01DX009 (ip), vehicle: saline) was 109 % of control. For the same compound, the T/C (dose: 12.0 micrograms/kg/injection, schedule: Q01DX009 (ip), vehicle: saline) was 118 % of control.

In the case of `CNc1nc(NC)nc(NC)n1`, the T/C [8] is reported as 106 % of control, the T/C [9] is reported as 118 % of control and the T/C [1] is reported as 100 % of control. The T/C [2] was 109 % of control.

For `COc1ccc(NC(=O)Nc2cc(C(F)(F)F)ccc2Cl)cc1`, the T/C (dose: 8.0 mg/kg/injection, schedule: Q01DX009 (ip), vehicle: saline with Tween-80) was 100 % of control, the T/C (dose: 12.0 mg/kg/injection, schedule: Q01DX009 (ip), vehicle: saline with Tween-80) was 100 % of control and the T/C [10] was 215 % of control. The T/C (dose: 18.0 mg/kg/injection, schedule: Q01DX009 (ip), vehicle: saline with Tween-80) was 104 % of control, the T/C [11] was 194 % of control and the T/C [4] was 218 % of control.

For `O=C1CCCC(=O)C1C(C[N+](=O)[O-])c1ccccc1` (stereo not given), the T/C [8] was 86 % of control, the T/C [9] was 94 % of control and the T/C [1] was 107 % of control. The T/C [2] was 107 % of control.

`CCCCCCCCCCCCCCCCN(C(=S)c1ccccc1)c1ccccc1` was tested, and the T/C [2] was 94 % of control, the T/C [3] was 95 % of control and the T/C (dose: 400.0 mg/kg/injection, schedule: Q01DX009 (ip), vehicle: Klucel (hydroxypropylcellulose) (HPC)) was 97 % of control.

For `O=C(O)C1CCCCC1C(=O)Nc1ccccc1C(F)(F)F` (stereo not given), the T/C [5] was 90 % of control, the T/C [6] was 90 % of control and the T/C [7] was 90 % of control.

`CC(=O)[C@]1(O)Cc2c(O)c3c(c(O)c2[C@@H](OC2CC(N)C(O)C(C)O2)C1)C(=O)c1c(O)cccc1C3=O` (stereo not given in full) was tested, and the T/C (dose: 0.04 mg/kg/injection, schedule: Q01DX001 (ip), vehicle: water) was 105 % of control, the T/C (dose: 0.08 mg/kg/injection, schedule: Q01DX001 (ip), vehicle: water) was 113 % of control and 124 % of control and the T/C (dose: 0.16 mg/kg/injection, schedule: Q01DX001 (ip), vehicle: water) was 124 % of control. For the same compound, the T/C (dose: 0.38 mg/kg/injection, schedule: Q01DX001 (ip), vehicle: water) was 124 % of control.

With `O=C(CCN1CCCCC1)c1cccc([N+](=O)[O-])c1` the T/C (dose: 12.5 mg/kg/injection, schedule: Q04DX003 (ip), vehicle: saline) was 105 % of control, the T/C (dose: 25.0 mg/kg/injection, schedule: Q04DX003 (ip), vehicle: saline) was 113 % of control and the T/C (dose: 50.0 mg/kg/injection, schedule: Q04DX003 (ip), vehicle: saline) was 100 % of control. The T/C (dose: 100.0 mg/kg/injection, schedule: Q04DX003 (ip), vehicle: Klucel (hydroxypropylcellulose) (HPC)) was 94 % of control.

With `CCCn1cnc2c(=S)nc[nH]c21` the T/C [10] was 120 % of control, the T/C [11] was 116 % of control and the T/C [4] was 106 % of control.

With `Nc1nc(SCc2ccccc2Cl)c2ncn(C3OC(CO)C(O)C3O)c2n1` (stereo not given) the T/C [1] was 89 % of control and the T/C [4] was 88 % of control.

`CN(C)CCC(c1ccccc1)c1cc(Cl)ccn1` (stereo not given) was tested, and the T/C (dose: 6.25 mg/kg/injection, schedule: Q01DX009 (ip), vehicle: saline) was 100 % of control, the T/C (dose: 12.5 mg/kg/injection, schedule: Q01DX009 (ip), vehicle: saline) was 103 % of control and the T/C (dose: 25.0 mg/kg/injection, schedule: Q01DX009 (ip), vehicle: saline) was 97 % of control. For the same compound, the T/C (dose: 50.0 mg/kg/injection, schedule: Q01DX009 (ip), vehicle: saline) was 97 % of control and the T/C (dose: 100.0 mg/kg/injection, schedule: Q01DX009 (ip), vehicle: saline) was 99 % of control.

— PubChem BioAssay AID192 (DTP/NCI, 2004)
